ChEMBL document CHEMBL3885861, “Open TG-GATES”

Species on record: Rattus norvegicus
Assay: Open TG-GATES - Regimen: Single
Format: toxicity, organism-based, Sprague-Dawley
Design: regimen Single, gender Male, age 6 weeks
Details: in vivo, po, route gavage; for APTT / Bas / Eos / Fbg / Hb / Ht / Lym / MCH / MCHC / MCV / Mono / Neu / PT / Plat / RBC / Ret / WBC: tissue Blood; for KIDNEY_L / KIDNEY_R / KIDNEY_TOTAL: tissue Kidney; for LIVER: tissue Liver
[1] = 30 mg/kg, 24 h, tissue Plasma, dose level Middle
[2] = 100 mg/kg, 3 h, dose level High
[3] = 100 mg/kg, 3 h, tissue Plasma, dose level High
[4] = 100 mg/kg, 6 h, dose level High
[5] = 100 mg/kg, 6 h, tissue Plasma, dose level High
[6] = 100 mg/kg, 9 h, dose level High
[7] = 100 mg/kg, 9 h, tissue Plasma, dose level High
[8] = 100 mg/kg, 24 h, dose level High
[9] = 100 mg/kg, 24 h, tissue Plasma, dose level High

CC(=O)N1CCN(c2ccc(OCC3COC(Cn4ccnc4)(c4ccc(Cl)cc4Cl)O3)cc2)CC1 (stereo unspecified) [KETOCONAZOLE]
TG [1]: 102.2 mg/dL
TP [1]: 5.5 g/dL
gamma-GTP [1]: 1.4 IU/L
TERMINAL_BW [2]: 205.8 g
APTT [2]: 21.1 s
Bas [2]: 0%
Eos [2]: 0.8%
Fbg [2]: 280.8 mg/dL
Hb [2]: 13 g/dL
Ht [2]: 38.6%
Lym [2]: 81.4%
MCH [2]: 21.1 pg
MCHC [2]: 33.5%
MCV [2]: 62.9 fL
Mono [2]: 1.8%
Neu [2]: 15.2%
PT [2]: 16.9 s
Plat [2]: 125.7 x10_4/uL
RBC [2]: 615.2 x10_4/ul
Ret [2]: 8.6%
WBC [2]: 103.8 x10_2/uL
KIDNEY_L [2]: 1 g
KIDNEY_R [2]: 1 g
KIDNEY_TOTAL [2]: 1.9 g
LIVER [2]: 9.5 g
ALP [3]: 1893.6 IU/L
AST [3]: 73.6 IU/L
BUN [3]: 11.6 mg/dL
CRE [3]: 0.1 mg/dL
Ca [3]: 10.8 mg/dL
Cl [3]: 104.6 meq/L
DBIL [3]: 0 mg/dL
GLC [3]: 190.8 mg/dL
IP [3]: 9.2 mg/dL
LDH [3]: 182.4 IU/L
Na [3]: 140.4 meq/L
PL [3]: 151.8 mg/dL
RALB [3]: 2.9 g/dL
TBIL [3]: 0.016 mg/dL
TC [3]: 85 mg/dL
TG [3]: 59.4 mg/dL
TP [3]: 5.3 g/dL
gamma-GTP [3]: 1 IU/L
TERMINAL_BW [4]: 197.9 g
APTT [4]: 21.5 s
Bas [4]: 0%
Eos [4]: 0.6%
Fbg [4]: 290.8 mg/dL
Hb [4]: 13.4 g/dL
Ht [4]: 39.8%
Lym [4]: 80.4%
MCH [4]: 21.4 pg
MCV [4]: 63.6 fL
Mono [4]: 2%
Neu [4]: 15%
PT [4]: 16.6 s
Plat [4]: 127.9 x10_4/uL
RBC [4]: 625.8 x10_4/ul
Ret [4]: 7.5%
WBC [4]: 69 x10_2/uL
KIDNEY_L [4]: 0.9 g
KIDNEY_R [4]: 0.9 g
KIDNEY_TOTAL [4]: 1.8 g
LIVER [4]: 8.7 g
ALP [5]: 1551.6 IU/L
AST [5]: 68.8 IU/L
BUN [5]: 8.8 mg/dL
CRE [5]: 0.2 mg/dL
Ca [5]: 10.9 mg/dL
Cl [5]: 105.2 meq/L
DBIL [5]: 0 mg/dL
GLC [5]: 191.2 mg/dL
IP [5]: 9.9 mg/dL
LDH [5]: 257.2 IU/L
Na [5]: 141.4 meq/L
PL [5]: 142.8 mg/dL
RALB [5]: 3 g/dL
TBIL [5]: 0.02 mg/dL
TC [5]: 74.2 mg/dL
TG [5]: 94.2 mg/dL
TP [5]: 5.4 g/dL
gamma-GTP [5]: 1 IU/L
TERMINAL_BW [6]: 199.2 g
APTT [6]: 20.8 s
Bas [6]: 0%
Eos [6]: 1%
Fbg [6]: 298 mg/dL
Ht [6]: 38.7%
Lym [6]: 80.6%
MCH [6]: 21.2 pg
MCV [6]: 62.9 fL
Mono [6]: 1.6%
Neu [6]: 15.8%
PT [6]: 16.9 s
Plat [6]: 124.7 x10_4/uL
RBC [6]: 615.4 x10_4/ul
Ret [6]: 8.1%
WBC [6]: 80.7 x10_2/uL
KIDNEY_L [6]: 0.9 g
KIDNEY_R [6]: 0.9 g
KIDNEY_TOTAL [6]: 1.8 g
LIVER [6]: 8.1 g
ALP [7]: 1393.4 IU/L
AST [7]: 63.2 IU/L
BUN [7]: 7.4 mg/dL
CRE [7]: 0.2 mg/dL
Ca [7]: 10.7 mg/dL
Cl [7]: 106 meq/L
DBIL [7]: 0 mg/dL
GLC [7]: 198 mg/dL
IP [7]: 9.3 mg/dL
LDH [7]: 179 IU/L
Na [7]: 142.2 meq/L
PL [7]: 137.4 mg/dL
RALB [7]: 2.9 g/dL
TBIL [7]: 0.02 mg/dL
TC [7]: 73.4 mg/dL
TG [7]: 55.2 mg/dL
TP [7]: 5.3 g/dL
gamma-GTP [7]: 1.2 IU/L
TERMINAL_BW [8]: 216.3 g
APTT [8]: 21.5 s
Bas [8]: 0%
Eos [8]: 0.4%
Fbg [8]: 304.2 mg/dL
Hb [8]: 13.3 g/dL
Ht [8]: 39.9%
Lym [8]: 74.8%
MCH [8]: 21.4 pg
MCHC [8]: 33.2%
MCV [8]: 64.4 fL
Mono [8]: 2%
Neu [8]: 21.4%
PT [8]: 16.4 s
Plat [8]: 127 x10_4/uL
RBC [8]: 621 x10_4/ul
Ret [8]: 8%
WBC [8]: 71.7 x10_2/uL
KIDNEY_L [8]: 1 g
KIDNEY_R [8]: 1 g
KIDNEY_TOTAL [8]: 2 g
LIVER [8]: 11 g
ALP [9]: 1882.6 IU/L
ALT [9]: 55.8 IU/L
AST [9]: 89.8 IU/L
BUN [9]: 15.8 mg/dL
CRE [9]: 0.2 mg/dL
Ca [9]: 10.7 mg/dL
Cl [9]: 105.4 meq/L
DBIL [9]: 0 mg/dL
GLC [9]: 180.4 mg/dL
IP [9]: 8.4 mg/dL
LDH [9]: 226.4 IU/L
Na [9]: 142.2 meq/L
PL [9]: 147 mg/dL
RALB [9]: 2.9 g/dL
TBIL [9]: 0.004 mg/dL
TC [9]: 79.4 mg/dL
TG [9]: 88.6 mg/dL
TP [9]: 5.4 g/dL
gamma-GTP [9]: 1 IU/L
